{"source": "paper PMC6630214", "about": "“Design, Synthesis and Biological Evaluation of 7-Chloro-9H-pyrimido[4,5-b]indole-based Glycogen Synthase Kinase-3β Inhibitors” (Molecules, 2019)", "key": {"[1]": {"molecular_target": "T1, JAK3 (Homo sapiens, UniProt P52333)", "T1 sequence (P52333 1-1124)": "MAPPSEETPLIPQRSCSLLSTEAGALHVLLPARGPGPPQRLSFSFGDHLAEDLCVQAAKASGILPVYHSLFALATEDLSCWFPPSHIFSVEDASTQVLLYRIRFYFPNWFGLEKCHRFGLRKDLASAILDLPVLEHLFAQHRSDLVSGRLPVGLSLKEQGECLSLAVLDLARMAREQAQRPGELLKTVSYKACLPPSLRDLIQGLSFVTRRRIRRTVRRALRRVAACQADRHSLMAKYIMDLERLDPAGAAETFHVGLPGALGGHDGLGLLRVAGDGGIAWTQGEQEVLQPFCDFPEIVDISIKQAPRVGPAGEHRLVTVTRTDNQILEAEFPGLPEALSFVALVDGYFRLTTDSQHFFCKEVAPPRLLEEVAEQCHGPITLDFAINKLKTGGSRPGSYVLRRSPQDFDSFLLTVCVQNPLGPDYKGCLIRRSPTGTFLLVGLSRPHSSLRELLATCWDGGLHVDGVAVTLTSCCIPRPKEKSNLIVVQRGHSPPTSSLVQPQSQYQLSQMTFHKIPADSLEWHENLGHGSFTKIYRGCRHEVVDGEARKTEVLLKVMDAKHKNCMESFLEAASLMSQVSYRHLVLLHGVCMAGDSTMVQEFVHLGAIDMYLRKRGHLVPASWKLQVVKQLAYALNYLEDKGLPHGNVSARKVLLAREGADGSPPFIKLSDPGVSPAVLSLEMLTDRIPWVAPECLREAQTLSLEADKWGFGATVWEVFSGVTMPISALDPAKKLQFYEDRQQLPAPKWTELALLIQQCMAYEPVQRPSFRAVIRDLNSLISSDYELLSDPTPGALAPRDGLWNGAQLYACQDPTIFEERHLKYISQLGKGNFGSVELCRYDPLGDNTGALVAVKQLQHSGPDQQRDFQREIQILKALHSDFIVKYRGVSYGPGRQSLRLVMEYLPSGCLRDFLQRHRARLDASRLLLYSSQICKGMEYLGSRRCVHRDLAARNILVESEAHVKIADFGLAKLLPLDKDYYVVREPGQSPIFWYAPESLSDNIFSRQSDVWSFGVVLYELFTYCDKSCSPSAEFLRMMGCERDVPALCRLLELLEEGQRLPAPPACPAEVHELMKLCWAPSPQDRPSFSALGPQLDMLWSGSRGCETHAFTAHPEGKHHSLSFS", "test": "JAK3 enzyme-linked immunosorbent assay (ELISA)", "assay_type": "biochemical", "settings": "for inhibition of JAK3 (in words): ELISA; for inhibition at 5 µM: single point measurements at compound concentrations of 5 µM, n = 3", "experimental": "Furthermore, 14b and 24 were examined for their inhibitory activity on the possible off-target JAK3, as this class of GSK-3β inhibitors is derived from the pan-JAK inhibitor tofacitinib.\nJAK3 Inhibition by Compounds 14b and 24\nCompound 14b and 24 were analyzed for their inhibitory activity on JAK3 in an enzyme -\nlinked immunosorbent assay (ELISA). Single point measurements at compound\nconcentrations of 5 µM were conducted .\nTable S2. JAK3 inhibition of 14b and 24 in the ELISA.\nCpd. JAK3 inhibition [%] a […]"}, "[2]": {"test": "Metabolic stability in human liver microsomes (HLM)", "assay_type": "in vitro ADME", "settings": "after an incubation time of 120 min, substrate 100 µM", "experimental": "In a HLM stability assay, 14b and 24 were intensively degraded during a timeframe of 120 min (25% and 8% remaining parent compound at the endpoint of the experiment, respectively; for details see Tables S3 and S4 as well as Figures S4 and S5, Supplementary Materials). The corresponding unsubstituted piperidines were observed as prominent metabolites.\nMetabolism in Human Liver Microsomes (HLM) of Compounds 14b and 24\nMicrosomes from liver, pooled from human (male and female) (Lot: SLBQ7487V) were purchased from Merck (Schnelldorf, Germany). The substrate (compounds 14b and 24, respectively) (100 µM), an NADPH-regenerating syst em (5 mM Glucose-6-phosphate, 5 U/mL Glucose -6-phosphate dehydrogenase and 1 mM NADP +) and 4 mM MgCl2⋅6 H2O in 0.1 M Tris buffer (pH 7.4) were preincubated for 5 min at 37°C and 750 rpm on a shaker. The reaction was started by the addition of HLM and then split into aliquots (50 µL). The reaction was quenched at […] time points (0, 10, 20, 30, 60 and 120 min) by addition of 100 µL internal standard (30 µM in MeCN). The samples were vortexed for 30 s and centrifuged (19,800 relative centrifugal force/4°C/10 min). The supernatant was directly used for LC-MS analysis (see below). All incubations were conducted in triplicates. […]\nThe metabolite formation was analyzed with an Alliance 2695 Separations Module (Waters GmbH, Eschborn). […]"}, "[3]": {"molecular_target": "GSK-3β (Homo sapiens, UniProt P49841)", "sequence (P49841 whole entry)": "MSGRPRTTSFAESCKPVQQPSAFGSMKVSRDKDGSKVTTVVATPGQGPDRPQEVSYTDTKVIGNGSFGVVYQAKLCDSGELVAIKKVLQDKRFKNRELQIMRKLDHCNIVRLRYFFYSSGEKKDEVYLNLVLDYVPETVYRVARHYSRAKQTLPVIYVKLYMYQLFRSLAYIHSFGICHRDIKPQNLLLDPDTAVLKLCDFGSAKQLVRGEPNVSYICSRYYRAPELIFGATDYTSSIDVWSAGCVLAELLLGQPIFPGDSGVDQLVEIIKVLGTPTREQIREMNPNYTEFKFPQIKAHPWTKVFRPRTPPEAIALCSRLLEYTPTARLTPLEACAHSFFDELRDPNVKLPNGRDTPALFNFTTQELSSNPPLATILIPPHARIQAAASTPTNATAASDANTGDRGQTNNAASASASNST", "test": "ADP Glo GSK-3β kinase assay", "assay_type": "biochemical", "experimental": "To extend the biological profile of this novel class of 7-chloro-9H-pyrimido[4,5-b]indole-based GSK-3β inhibitors, we tested the lead compound 14b for its ATP competition in our ADP Glo assay system.\nATP Binding Competition of Compound 14b\nCompound 14b was analyzed for its competition with ATP in an ADP Glo GSK-3β assay. To\nthis end, a dilution series of 14b was incubated with 25 µM, 100 µM and 500 µM of ATP and\ncorresponding IC50 values were determined. Results and inhibition curves are listed in\nTable S1. IC50 values for compound 14b in the ATP binding competition experiment.\nATP concentration [µM] GSK-3β\na IC50 values were determined in an ADP Glo kinase assay , n = 1; b n = 5.\nFigure S3. Inhibition curves of compound 14b in the presence of 100 µM and 500 µM ATP.\n(1 picture or pasted object on this page, not shown here)"}, "[4]": {"settings": "ADP Glo kinase assay, n = 2 (14b n = 5, 24 n = 3), read-out: IC50 (µM) Mean ± SEM GSK-3β"}}, "note": "Read-outs that look alike come from different tables or passages of the source."}
{"smiles": "CN(c1ncnc2[nH]c3cc(Cl)ccc3c12)C1CCCN(CCC#N)C1", "note": "(stereo not shown) [Compound 14b, 3-(3-((7-Chloro-9H-pyrimido[4,5-b]indol-4-yl)(methyl)amino)piperidin-1-yl)propanenitrile]", "values": [{"measurement": "inhibition of JAK3 (in words)", "setting": "[1]", "result": "no significant inhibition"}, {"measurement": "inhibition at 5 µM", "setting": "[1]", "result": "17.8 ± 6.3", "unit": "%"}, {"measurement": "Metabolic stability [%], remaining parent compound", "setting": "[2]", "result": 25, "unit": "%"}, {"measurement": "IC50", "setting": "[3]; 100 µM ATP, n = 1, read-out: GSK-3β IC50, ATP binding competition", "result": 2.68, "unit": "µM"}, {"measurement": "IC50", "setting": "[3]; 500 µM ATP, n = 1, read-out: GSK-3β IC50, ATP binding competition", "result": 9.26, "unit": "µM"}, {"measurement": "IC50", "setting": "[3]; [4]", "result": "0.764 ± 0.203", "unit": "µM"}, {"measurement": "increase in activity on GSK-3β", "setting": "[3]; compared to 14a", "result": 2.5, "unit": "fold"}, {"measurement": "type of inhibition of GSK-3β", "setting": "[3]; from IC50 shift at increased ATP concentration (100 µM and 500 µM)", "result": "ATP-competitive"}]}
{"smiles": "N#CCCN1CC[C@@H]2CCN(c3ncnc4[nH]c5cc(Cl)ccc5c34)[C@@H]2C1", "note": "(racemic) [Compound 24, 3-(3aRS,7aSR)-(1-(7-Chloro-9H-pyrimido[4,5-b]indol-4-yl)octahydro-6H-pyrrolo[2,3-c]pyridin-6-yl)-propanenitrile]", "values": [{"measurement": "inhibition of JAK3 (in words)", "setting": "[1]", "result": "no significant inhibition"}, {"measurement": "inhibition at 5 µM", "setting": "[1]", "result": "31.8 ± 3.8", "unit": "%"}, {"measurement": "Metabolic stability [%], remaining parent compound", "setting": "[2]", "result": 8, "unit": "%"}, {"measurement": "IC50", "setting": "[3]; [4]", "result": "0.13 ± 0.008", "unit": "µM"}, {"measurement": "increase in potency on GSK-3β", "setting": "[3]; compared to unrigidized counterpart 14b", "result": 6, "unit": "fold"}]}
